From US20110275518A1 (priority 2007, published 2011)
“Also recorded” adds a separate entry of the source.

Columns and labels:
[1] = tested on: dry bean (Phaseolus vulgaris L) seeds, cultivar 'Othello'; test: Germination of diseased dry bean seed under bacterial disease pressure (Experiment 1); format: in vivo
Description: The precipitate is recovered by filtration and the powder is dried.
Seeds were placed on blotters in Petri plates, were soaked in an excess of water for 3 days, then drained on day 4. The 3-day period of excess water created extremely high pressure from pathogenic and saprophytic bacteria. This led to a very high bacterial load on the germinating seeds and high disease pressure due to pathogenic, saprophytic and soft-rot bacteria. This disease pressure was so extreme that the germination rates for experiments 2-5 were essentially zero due to being overwhelmed by the disease pressure.

pulse seeds = conditions: 0.1% to 1% aqueous coating; pea, chickpea, lentil, soybean
Description: Germination on blotters was scored at 7- and 14-days. Emergence from soil was scored at 21- and 28-days.
To treat seeds, one hundred seeds were placed in a 50-mL Falcon tube and combined with the treatment solution. Seeds were mixed with the treatment for 5-min by gently rolling and inverting the Falcon tube. Coated seeds were placed in an open Petri plate for 30-min to dry. Seeds were sown 10-per pot, set in a greenhouse, and maintained under standard conditions with mercury lamp lighting supplementing daylight from 3:00 pm to 10:00 pm.
Place 100-seeds into a 50-mL Falcon tube and add 1-mL of treatment solution. Gently roll and invert the tube for 5 min to evenly coat each seed without causing damage. Remove seeds from tube by pouring carefully into an empty Petri plate. Leave exposed (lid off) and air dry seeds for 30 min.
(1) Germination: Place 50 seeds from each treatment onto 25 individual moistened blotters in large Petri plates. Incubate at room temperature for 2-weeks with or without light. Score germination at 7- and 14-days. (2) Emergence: Sow 50 seeds from each treatment into five pots (10-seeds per pot and five pots per treatment). Place in a greenhouse at 22° C. with ample air circulation. Use mercury lamps to supplement lighting (on at 3:00 pm-off at 10:00 pm) if necessary. For pre-emergent plants, water pots as needed to keep soil moist but not wet. Water emergent plants daily. […]

healthy dry bean seed = test: Germination of healthy dry bean seed; format: in vivo
[2] = prior art teaching; cited from earlier work

| Compound | phytotoxicity / effect on germination of dry bean seeds ([1]; 0.1% to 1% treatments, days needed to reach 25% germination) | increase in germination compared with the negative control (sterile water) ([1]; 1% treatment, by day 10) | effect on germination of pulse seeds (pulse seeds) | Day to 50% germination (healthy dry bean seed; 1%) | Day to 50% germination (healthy dry bean seed; […]) | phytotoxicity [2] |
| --- | --- | --- | --- | --- | --- | --- |
| oxysilver nitrate [high valency silver] | no negative effects on germination; also recorded: no phytotoxic effect on germinating seeds | 34.7% | no negative effects on germination of any pulse seed | 5.0 days | 5.0 days |  |
| O=[N+]([O-])[O-].[Ag+] [silver nitrate] |  |  |  |  |  | phytotoxic |
